IC50 data for 4 compounds are collected here from patent US20240150369A1, “CYCLIN-DEPENDENT KINASE INHIBITING COMPOUNDS FOR THE TREATMENT OF MEDICAL DISORDERS” (G1 Therapeutics, Inc., priority 2020, published 2024).

Where only a bound is given, the exact number is not on record here.

Format in all cases: biochemical
The target of one assay is CDK7 (Homo sapiens (Human), UniProt P50613). The assay is described as follows: CDK7 kinase assay (Nanosyn, Caliper microfluidic). To be noted: 12-point dose-response, singlicate, at Km for ATP. The protocol:
(§1) Selected compounds disclosed herein were tested in kinase assays by Nanosyn (Santa Clara, CA) to determine their inhibitory effect on these CDKs. The assays were performed using microfluidic kinase detection technology (Caliper Assay Platform). The compounds were tested in 12-point dose-response format in singlicate at Km for ATP.

Another assay concerns the target CDK6/Cyclin D3 (Homo sapiens (Human), UniProt Q00534). Put plainly: CDK6/Cyclin D3 kinase assay (Nanosyn, Caliper microfluidic). To be noted: 12-point dose-response, singlicate, at Km for ATP; ATP 300 μM; 3 hr. The protocol: (§2) Selected compounds disclosed herein were tested in kinase assays by Nanosyn (Santa Clara, CA) to determine their inhibitory effect on these CDKs. The assays were performed using microfluidic kinase detection technology (Caliper Assay Platform). The compounds were tested in 12-point dose-response format in singlicate at Km for ATP. Specifics of each assay are as described below:
CDK6/Cyclin D3: Enzyme concentration: 2 nM; ATP concentration: 300 μM; Incubation time: 3 hr.

The target of the next assay is CDK4/Cyclin D1 (Homo sapiens (Human), UniProt P11802). The assay is described as follows: CDK4/Cyclin D1 kinase assay (Nanosyn, Caliper microfluidic). Conditions: 12-point dose-response, singlicate, at Km for ATP; ATP 200 μM; 3 hr. The protocol:
as §2
CDK4/Cyclin D1: Enzyme concentration: 1 nM; ATP concentration: 200 μM; Incubation time: 3 hr.

Another assay has as its target CDK9/Cyclin T1 (Homo sapiens (Human), UniProt P50750). Put plainly: CDK9/Cyclin T1 kinase assay (Nanosyn, Caliper microfluidic). To be noted: 12-point dose-response, singlicate, at Km for ATP; ATP 10 μM; 17 hr. How it is done:
as §2
CDK9/Cyclin T1: Enzyme concentration: 5 nM; ATP concentration: 10 μM; Incubation time: 17 hr.

In another assay the target is CDK5-p25 (Homo sapiens (Human), UniProt Q00535). The assay is described as follows: CDK5-p25 kinase assay (Nanosyn, Caliper microfluidic). To be noted: 12-point dose-response, singlicate, at Km for ATP. How it is done: as §1
Sequence of CDK5-p25 (Q00535 whole entry): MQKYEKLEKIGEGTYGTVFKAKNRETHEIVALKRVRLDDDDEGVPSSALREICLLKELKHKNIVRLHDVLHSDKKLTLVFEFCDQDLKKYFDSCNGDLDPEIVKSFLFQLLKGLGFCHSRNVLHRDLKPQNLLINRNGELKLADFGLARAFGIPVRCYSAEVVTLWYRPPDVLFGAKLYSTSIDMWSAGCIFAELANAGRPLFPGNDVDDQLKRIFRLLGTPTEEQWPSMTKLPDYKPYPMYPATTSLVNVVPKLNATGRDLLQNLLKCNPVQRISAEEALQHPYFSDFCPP
Sequence of CDK5-p25 (Q15078 99-307 partner): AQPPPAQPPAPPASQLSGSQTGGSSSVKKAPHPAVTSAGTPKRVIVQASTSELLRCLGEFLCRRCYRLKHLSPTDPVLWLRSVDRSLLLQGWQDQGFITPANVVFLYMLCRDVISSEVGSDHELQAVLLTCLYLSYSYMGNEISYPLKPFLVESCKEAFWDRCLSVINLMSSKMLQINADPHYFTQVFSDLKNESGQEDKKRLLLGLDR
The target in a further assay is CDK1/Cyclin B1 (Homo sapiens (Human), UniProt P06493). Put plainly: CDK1/Cyclin B1 kinase assay (Nanosyn, Caliper microfluidic). Conditions: 12-point dose-response, singlicate, at Km for ATP; ATP 40 μM; 3 hr. The protocol:
as §2
CDK1/Cyclin B1: Enzyme concentration: 0.08 nM; ATP concentration: 40 μM; Incubation time: 3 hr.

A further assay has as its target CDK3-CYCLIN-E (Homo sapiens (Human), UniProt Q00526). Put plainly: CDK3-Cyclin-E kinase assay (Nanosyn, Caliper microfluidic). Conditions: 12-point dose-response, singlicate, at Km for ATP. How it is done:
as §1

In a further assay the target is CDK2/Cyclin A (Homo sapiens (Human), UniProt P24941). Put plainly: CDK2/Cyclin A kinase assay (Nanosyn, Caliper microfluidic). Conditions: 12-point dose-response, singlicate, at Km for ATP; ATP 50 μM; 3 hr. How it is done: as §2
CDK2/Cyclin A: Enzyme concentration: 0.1 nM; ATP concentration: 50 μM; Incubation time: 3 hr.

The target in a further assay is CDK2/Cyclin E (Homo sapiens (Human), UniProt P24941). The assay is described as follows: CDK2/Cyclin E kinase assay (Nanosyn, Caliper microfluidic). To be noted: 12-point dose-response, singlicate, at Km for ATP; ATP 100 μM; 3 hr. How it is done: as §2
CDK2/Cyclin E: Enzyme concentration: 0.15 nM; ATP concentration: 100 μM; Incubation time: 3 hr.

Sequence of CDK7 (P50613 whole entry): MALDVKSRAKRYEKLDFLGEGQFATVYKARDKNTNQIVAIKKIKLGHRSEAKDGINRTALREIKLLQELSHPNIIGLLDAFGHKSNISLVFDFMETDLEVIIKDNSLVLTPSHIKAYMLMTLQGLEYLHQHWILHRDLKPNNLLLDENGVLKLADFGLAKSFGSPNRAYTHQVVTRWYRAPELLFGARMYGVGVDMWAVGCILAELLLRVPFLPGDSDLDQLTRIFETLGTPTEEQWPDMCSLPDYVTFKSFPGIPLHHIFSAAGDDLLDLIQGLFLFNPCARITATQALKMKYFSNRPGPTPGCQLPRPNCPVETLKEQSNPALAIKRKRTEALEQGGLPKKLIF
Sequence of CDK7 (P51946 whole entry partner): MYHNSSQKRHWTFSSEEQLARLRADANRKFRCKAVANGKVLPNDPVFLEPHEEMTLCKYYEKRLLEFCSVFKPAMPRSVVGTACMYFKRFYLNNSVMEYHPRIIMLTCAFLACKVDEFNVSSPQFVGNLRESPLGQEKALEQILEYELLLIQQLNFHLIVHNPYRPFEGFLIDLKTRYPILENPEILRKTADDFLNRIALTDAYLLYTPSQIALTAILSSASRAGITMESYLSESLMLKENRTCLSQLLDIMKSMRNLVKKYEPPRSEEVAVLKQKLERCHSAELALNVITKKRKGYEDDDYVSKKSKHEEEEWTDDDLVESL
Sequence of CDK7 (P51948 whole entry partner): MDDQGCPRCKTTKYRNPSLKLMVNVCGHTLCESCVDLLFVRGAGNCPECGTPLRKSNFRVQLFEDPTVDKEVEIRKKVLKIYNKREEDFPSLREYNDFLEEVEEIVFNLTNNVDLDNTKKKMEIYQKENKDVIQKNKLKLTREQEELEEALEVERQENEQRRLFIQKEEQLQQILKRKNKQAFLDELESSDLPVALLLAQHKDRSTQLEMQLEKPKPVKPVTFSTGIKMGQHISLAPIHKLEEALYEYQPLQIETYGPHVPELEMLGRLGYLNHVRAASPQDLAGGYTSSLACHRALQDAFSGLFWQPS
Sequence of CDK9/Cyclin T1 (P50750 whole entry): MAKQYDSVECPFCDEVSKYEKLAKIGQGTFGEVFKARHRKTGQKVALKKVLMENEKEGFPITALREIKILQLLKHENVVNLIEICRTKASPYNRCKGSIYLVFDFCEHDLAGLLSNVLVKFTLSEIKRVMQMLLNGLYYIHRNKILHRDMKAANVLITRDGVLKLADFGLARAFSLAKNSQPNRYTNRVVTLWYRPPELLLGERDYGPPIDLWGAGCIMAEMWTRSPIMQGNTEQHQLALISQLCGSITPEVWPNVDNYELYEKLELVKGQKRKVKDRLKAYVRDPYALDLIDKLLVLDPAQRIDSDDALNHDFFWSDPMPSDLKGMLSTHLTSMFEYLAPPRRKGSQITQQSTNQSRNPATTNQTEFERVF
Sequence of CDK9/Cyclin T1 (O60563 whole entry partner): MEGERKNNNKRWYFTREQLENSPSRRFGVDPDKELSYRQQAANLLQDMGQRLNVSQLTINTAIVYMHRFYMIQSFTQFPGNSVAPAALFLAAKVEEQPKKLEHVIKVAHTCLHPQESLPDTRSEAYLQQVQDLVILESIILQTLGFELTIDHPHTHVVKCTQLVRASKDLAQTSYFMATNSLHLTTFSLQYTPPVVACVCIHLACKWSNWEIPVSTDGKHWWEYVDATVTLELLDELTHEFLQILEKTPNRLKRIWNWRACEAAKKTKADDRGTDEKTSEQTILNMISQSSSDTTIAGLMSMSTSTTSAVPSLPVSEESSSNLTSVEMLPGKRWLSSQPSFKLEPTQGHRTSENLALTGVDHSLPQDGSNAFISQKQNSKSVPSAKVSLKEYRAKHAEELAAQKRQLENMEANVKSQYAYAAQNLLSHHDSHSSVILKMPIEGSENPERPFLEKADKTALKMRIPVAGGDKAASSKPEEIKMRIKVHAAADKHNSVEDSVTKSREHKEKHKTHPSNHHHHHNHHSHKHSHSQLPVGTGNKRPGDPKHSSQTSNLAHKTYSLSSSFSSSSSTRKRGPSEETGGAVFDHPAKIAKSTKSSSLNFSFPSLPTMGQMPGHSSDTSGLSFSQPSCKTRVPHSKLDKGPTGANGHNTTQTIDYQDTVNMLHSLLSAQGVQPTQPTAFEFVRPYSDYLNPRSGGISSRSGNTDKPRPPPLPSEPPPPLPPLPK
Sequence of CDK6/Cyclin D3 (Q00534 whole entry): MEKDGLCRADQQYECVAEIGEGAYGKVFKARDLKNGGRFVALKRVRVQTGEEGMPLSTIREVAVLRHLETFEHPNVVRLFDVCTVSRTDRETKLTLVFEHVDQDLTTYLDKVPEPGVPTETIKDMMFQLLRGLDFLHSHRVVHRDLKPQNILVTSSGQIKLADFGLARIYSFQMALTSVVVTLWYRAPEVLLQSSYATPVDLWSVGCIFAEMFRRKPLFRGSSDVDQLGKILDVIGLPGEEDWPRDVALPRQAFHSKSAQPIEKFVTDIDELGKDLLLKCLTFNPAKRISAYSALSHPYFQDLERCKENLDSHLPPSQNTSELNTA
Sequence of CDK6/Cyclin D3 (P30281 whole entry partner): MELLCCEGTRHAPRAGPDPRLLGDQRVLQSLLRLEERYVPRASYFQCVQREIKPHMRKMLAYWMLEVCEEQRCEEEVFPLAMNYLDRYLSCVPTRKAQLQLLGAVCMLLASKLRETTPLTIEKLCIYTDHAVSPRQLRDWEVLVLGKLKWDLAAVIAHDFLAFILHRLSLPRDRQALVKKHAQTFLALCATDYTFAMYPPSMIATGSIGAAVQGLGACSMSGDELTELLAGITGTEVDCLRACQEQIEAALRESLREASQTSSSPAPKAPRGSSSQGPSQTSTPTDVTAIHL
Sequence of CDK4/Cyclin D1 (P11802 whole entry): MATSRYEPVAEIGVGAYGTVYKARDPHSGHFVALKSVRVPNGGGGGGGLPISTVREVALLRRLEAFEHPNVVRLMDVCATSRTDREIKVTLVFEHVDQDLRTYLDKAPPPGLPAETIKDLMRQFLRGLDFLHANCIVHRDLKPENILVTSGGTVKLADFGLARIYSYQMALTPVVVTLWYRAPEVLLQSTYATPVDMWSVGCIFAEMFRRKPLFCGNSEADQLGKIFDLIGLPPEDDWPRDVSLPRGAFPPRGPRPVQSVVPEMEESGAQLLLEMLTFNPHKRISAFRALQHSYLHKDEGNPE
Sequence of CDK4/Cyclin D1 (P24385 whole entry partner): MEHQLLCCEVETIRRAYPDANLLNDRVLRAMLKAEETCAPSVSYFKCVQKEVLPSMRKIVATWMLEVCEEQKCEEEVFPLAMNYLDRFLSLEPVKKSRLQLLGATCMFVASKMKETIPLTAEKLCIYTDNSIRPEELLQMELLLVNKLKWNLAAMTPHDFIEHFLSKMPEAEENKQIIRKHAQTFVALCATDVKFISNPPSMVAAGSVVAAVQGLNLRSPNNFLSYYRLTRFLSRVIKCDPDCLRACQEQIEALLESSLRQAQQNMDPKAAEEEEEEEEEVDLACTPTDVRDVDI
Sequence of CDK1/Cyclin B1 (P06493 whole entry): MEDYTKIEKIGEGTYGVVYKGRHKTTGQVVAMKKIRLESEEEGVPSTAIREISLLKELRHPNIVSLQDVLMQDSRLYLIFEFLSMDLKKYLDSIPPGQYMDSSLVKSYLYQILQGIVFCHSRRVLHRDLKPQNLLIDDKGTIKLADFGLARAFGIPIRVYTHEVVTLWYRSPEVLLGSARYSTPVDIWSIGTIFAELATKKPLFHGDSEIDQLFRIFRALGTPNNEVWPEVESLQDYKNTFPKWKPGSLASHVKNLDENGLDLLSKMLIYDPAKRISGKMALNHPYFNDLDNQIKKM
Sequence of CDK1/Cyclin B1 (P14635 whole entry partner): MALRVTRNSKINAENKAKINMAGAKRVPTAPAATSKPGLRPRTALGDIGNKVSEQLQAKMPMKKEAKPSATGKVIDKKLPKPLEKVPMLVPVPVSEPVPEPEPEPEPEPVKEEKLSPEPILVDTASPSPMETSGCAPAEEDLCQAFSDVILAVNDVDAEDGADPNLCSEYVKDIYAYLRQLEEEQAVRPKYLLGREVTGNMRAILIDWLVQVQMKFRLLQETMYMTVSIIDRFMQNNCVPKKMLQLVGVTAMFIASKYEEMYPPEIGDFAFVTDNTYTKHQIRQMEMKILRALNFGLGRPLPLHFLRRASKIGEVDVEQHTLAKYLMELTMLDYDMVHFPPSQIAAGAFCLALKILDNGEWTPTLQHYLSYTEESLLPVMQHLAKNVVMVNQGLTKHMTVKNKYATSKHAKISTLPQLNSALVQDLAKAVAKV

In general, IC50 refers to the point on the concentration scale where inhibition reaches its midpoint. The low end stands for higher potency, the high end for lower potency. Take `NS(=O)(=O)c1ccc(Nc2ncc3cc4n(c3n2)C2(CCCCC2)C(=O)NN4)cc1` [Compound 3, 4-((3′-oxo-2′,3′-dihydro-1′H-spiro[cyclohexane-1,4′-pyrimido[5′,4′:4,5]pyrrolo[2,1-c][1,2,4]triazin]-7′-yl)amino)benzenesulfonamide]: the concentration for half-maximal inhibition (IC50) is more than 1000 nM on CDK7; 350 nM against CDK6/Cyclin D3; 130 nM against CDK4/Cyclin D1; 62 nM against CDK9/Cyclin T1; 14 nM against CDK5-p25; 33 nM against CDK1/Cyclin B1. For the same compound, the IC50 against CDK3-CYCLIN-E was 9.9 nM; at CDK2/Cyclin A, 2.5 nM; against CDK2/Cyclin E, 0.56 nM.
With `CN1NC(=O)C2(CCCCC2)n2c1cc1cnc(Nc3ccc(S(N)(=O)=O)cc3)nc12` [Compound 12, 4-((1′-methyl-3′-oxo-2′,3′-dihydro-1′H-spiro[cyclohexane-1,4′-pyrimido[5′,4′:4,5]pyrrolo[2,1-c][1,2,4]triazin]-7′-yl)amino)benzenesulfonamide], the IC50 was more than 1000 nM at CDK7; 160 nM on CDK6/Cyclin D3; 28 nM on CDK4/Cyclin D1; 180 nM on CDK9/Cyclin T1; 140 nM on CDK5-p25; 88 nM against CDK1/Cyclin B1. Moreover, the 50% inhibitory concentration (IC50) came out at 59 nM at CDK3-CYCLIN-E, 9.2 nM at CDK2/Cyclin A and 13 nM on CDK2/Cyclin E.
Consider `NS(=O)(=O)c1ccc(Nc2ncc3cc4n(c3n2)C2(CCCCC2)C(=O)N[C@H]4CF)cc1` [Compound 18, (R)-4-((6′-(fluoromethyl)-8′-oxo-7′,8′-dihydro-6′H-spiro[cyclohexane-1,9′-pyrazino[1′,2′:1,5]pyrrolo[2,3-d]pyrimidin]-2′-yl)amino)benzenesulfonamide], for which the half-inhibitory concentration (IC50) turned out to be 840 nM at CDK7; 150 nM against CDK6/Cyclin D3; 33 nM against CDK4/Cyclin D1; 10 nM against CDK9/Cyclin T1; 17 nM against CDK5-p25; 20 nM against CDK1/Cyclin B1. Besides, the IC50 amounted to 18 nM against CDK3-CYCLIN-E, 1.7 nM on CDK2/Cyclin A and 2.7 nM against CDK2/Cyclin E.
As for `C[C@@H]1NC(=O)C2(CCCCC2)n2c1cc1cnc(Nc3ccc(S(N)(=O)=O)cc3)nc12` [Compound 19, (S)-4-((6′-methyl-8′-oxo-7′,8′-dihydro-6′H-spiro[cyclohexane-1,9′-pyrazino[1′,2′:1,5]pyrrolo[2,3-d]pyrimidin]-2′-yl)amino)benzenesulfonamide], the 50% inhibitory concentration (IC50) against CDK7 was 800 nM; at CDK6/Cyclin D3, 210 nM; on CDK4/Cyclin D1, 40 nM; against CDK9/Cyclin T1, 22 nM; at CDK5-p25 it was 62 nM; at CDK1/Cyclin B1 it was 40 nM. The IC50 on CDK3-CYCLIN-E is 34 nM; against CDK2/Cyclin A, 4.3 nM; against CDK2/Cyclin E it was 4.8 nM.
